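The compound was tested at five concentrations on cells cultured in 96-well plates, with a 48-hour exposure period. The concentration for full growth arrest is given as TGI.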
Assays:
Assay in all cases: NCI-60 cell line screen, 48 h
[1] = system: NCI-H522 lung
[2] = system: CCRF-CEM leukemia
[3] = system: TK-10 renal
[4] = system: SW-620 colon
[5] = system: RPMI-8226 leukemia
[6] = system: LOX IMVI melanoma
[7] = system: SK-OV-3 ovarian
[8] = system: RXF 393 renal
[9] = system: SNB-19 CNS
[10] = system: A498 renal
[11] = system: HCT-116 colon
[12] = system: MOLT-4 leukemia
[13] = system: OVCAR-3 ovarian
[14] = system: NCI-H460 lung
[15] = system: UACC-257 melanoma
[16] = system: ACHN renal
[17] = system: DU-145 prostate
[18] = system: MDA-MB-435
[19] = system: MCF7 breast

| Compound | TGI [1] [µM] | TGI [2] [µM] | TGI [3] [µM] | TGI [4] [µM] | TGI [5] [µM] | TGI [6] [µM] | TGI [7] [µM] | TGI [8] [µM] | TGI [9] [µM] | TGI [10] [µM] | TGI [11] [µM] | TGI [12] [µM] | TGI [13] [µM] | TGI [14] [µM] | TGI [15] [µM] | TGI [16] [µM] | TGI [17] [µM] | TGI [18] [µM] | TGI [19] [µM] |
| --- | --- | --- | --- | --- | --- | --- | --- | --- | --- | --- | --- | --- | --- | --- | --- | --- | --- | --- | --- |
| CCOC(=O)c1c(C(F)(F)F)oc2c1ccc1nc3nonc3nc12 | 29.3 | 5.69 | 36.4 | 35.3 | > 42.3 | 31.8 | 35.7 | 16.4 | 38.2 | 30.7 | 32.1 | 12.6 | 30.4 | 49.6 | 27.9 | 29.4 |  |  |  |
| CCCCCn1cnc2c1S(=O)(=O)N(C)C(NC(=O)c1ccccc1)=N2 | > 100 | > 100 | > 100 | > 100 | > 100 | > 100 | > 100 |  | > 100 | > 100 | > 100 | > 100 | > 100 | > 100 | > 100 | > 100 |  |  |  |
| O=C1C2Nc3ccccc3SC2C(=O)N1c1cccc([N+](=O)[O-])c1 (stereo not given) | > 100 | > 100 | > 100 | > 100 | > 100 | > 100 | > 100 | > 100 | > 100 | > 100 | > 100 | > 100 | > 100 | > 100 | > 100 | > 100 |  |  |  |
| Cn1c2c(cc(-c3ccccc3)c1=O)COc1ccccc1-2 | 52.3 | 57.5 |  | > 100 | 42.1 | 31.3 | 86.8 | > 100 | > 100 | > 100 | 37.9 | 47.2 | > 100 | 70.7 | > 100 | 91.9 |  |  |  |
| COc1cc(C2C(Cl)C(=O)N2NC(=O)Cc2ccccc2)ccc1O (stereo not given) | 56.3 | > 100 | > 100 | > 100 | > 100 | > 100 | > 100 | > 100 | > 100 |  | > 100 | > 100 | > 100 | > 100 | > 100 | > 100 |  |  |  |
| C[N+](C)(Cc1ccc(NC(=O)CCCC(=O)ON2C(=O)CCC2=O)cc1)c1ccccc1 | > 100 | > 100 | > 100 | > 100 |  | > 100 | > 100 |  | > 100 | > 100 | 18.2 | 1.8 | > 100 |  | < 0.01 | > 100 |  |  |  |
| O=C(O)Cc1ccc2c(c1O)C(=O)c1c(ccc(CC(=O)O)c1O)C2=O | > 100 | > 100 | > 100 | > 100 | > 100 | > 100 | > 100 |  | > 100 | > 100 | > 100 | > 100 | > 100 | > 100 | > 100 | > 100 |  |  |  |
| COC(=O)/C(=N\O)C(C(=O)C=C(C)C)C(=O)C(=O)Nc1ccccc1C (stereo not given) | > 100 | > 100 | > 100 | > 100 | > 100 | > 100 | > 100 | > 100 | > 100 | > 100 | > 100 | > 100 | > 100 | > 100 | > 100 | > 100 |  |  |  |
| O=C(Nc1cc(Cl)c(Cl)cc1Cl)C(=O)C(C(=O)c1ccc2ccccc2c1)C1OC(=O)c2ccccc21 (stereo not given) | 26.9 |  |  | 25.6 | > 100 | 39.8 | > 100 | 15.1 | 33.2 | 25.8 | 34.6 |  | 59.5 | 25.9 | 28.7 | 39.9 |  |  |  |
| COC1=CC(=O)c2ccccc2C1(C)C1=NC(C)(C)CO1 (stereo not given) | > 100 | > 100 | > 100 | > 100 | > 100 |  | > 100 | > 100 | > 100 |  | > 100 | > 100 | > 100 | > 100 | > 100 | > 100 |  |  |  |
| C/C(CN1C(=O)c2ccccc2C1=O)=N\NS(=O)(=O)c1ccc(F)cc1 | > 100 | > 100 | > 100 | > 100 | > 100 | > 100 | > 100 |  | > 100 | > 100 | > 100 | > 100 | > 100 | > 100 | > 100 | > 100 |  |  |  |
| COC(=O)c1cc(C)n(NC(=O)OC(C)(C)C)c1C | > 100 | > 100 | > 100 | > 100 | > 100 | > 100 | > 100 | > 100 | > 100 | > 100 | > 100 | > 100 | > 100 | > 100 | > 100 | > 100 |  |  |  |
| CC(C)(C)C(=O)[CH-]C(=O)C(F)(F)C(F)(F)C(F)(F)F.CC(C)(C)C(=O)[CH-]C(=O)C(F)(F)C(F)(F)C(F)(F)F.[O-]CC1OC(O)C(O)C(O)C1O.[O-]CC1OC(O)C(O)C(O)C1O.[Ti+4] |  | > 100 | > 100 | > 100 | > 100 | > 100 | > 100 | > 100 | > 100 |  | > 100 | > 100 | > 100 | > 100 | > 100 | > 100 |  |  |  |
| COc1ccc(/C(Cl)=C/c2ccc(Cl)c(Cl)c2)cc1 | 41.1 | 47.8 |  | > 100 | 53.9 |  | > 100 | 33.6 | > 100 | 72.8 | 80.3 | 37 |  |  | 66.2 | 91.6 |  |  |  |
| N#C/C(=C\c1ccc(O)cc1O)C(N)=O | > 100 | > 100 | > 100 | > 100 | > 100 | > 100 | > 100 | 83.5 | > 100 | > 100 | > 100 | > 100 | > 100 | > 100 | > 100 | > 100 |  |  |  |
| Cn1c(N)c(-c2c3ccccc3nc3ccccc23)c(=O)n(C)c1=O | > 100 | > 100 | > 100 | > 100 | > 100 |  | > 100 | > 100 |  | > 100 | > 100 | > 100 | > 100 |  |  |  |  |  |  |
| CCOC(=O)c1cn2c([nH]c3ccccc32)c(C#N)c1=O | > 100 | > 100 | > 100 | 39.5 |  | 56.8 | > 100 | > 100 | > 100 | > 100 | > 100 | > 100 | > 100 | > 100 | > 100 | > 100 |  |  |  |
| Nc1ccc(C(=O)NN2C(=O)C(Cl)C2c2cccc([N+](=O)[O-])c2)cc1 (stereo not given) | 25.1 | 30.4 | 35.3 | 40 | 71.2 | 25.1 | 33.3 |  | 32.1 | 45.4 | 34.2 | 37.5 | 41.8 | > 100 | 51 | 50.9 |  |  |  |
| CCCCCC(=O)Cc1cc(OC)cc2c1C(=O)Oc1cc(O)c(C(=O)O)c(CC(=O)CCCCC)c1O2 | > 100 | > 100 | > 100 | > 100 | > 100 | > 100 | > 100 |  |  | > 100 | 71.2 | > 100 | 43.8 | > 100 | > 100 | > 100 |  |  |  |
| CO[C@H](c1ccccc1)[C@H](C)N(C)c1ccc2ccccc2c1C1=NC(C)(C)CO1 | 19.4 | 48.9 | 61.8 | 33.4 | 53.2 |  | 33.3 | 27.6 | 84.7 |  | 34.6 | 39.3 | 30.7 | 33 | 30.6 | 36.4 |  |  |  |
| CC1(C)O[C@@H](CP(c2ccccc2)c2ccccc2)[C@H](CP(c2ccccc2)c2ccccc2)O1 | 12.8 | > 100 | 87 | 38.3 | 59.1 | 17.4 | > 100 | 26.9 | 72.2 | 39.1 | 20.9 | > 100 | 33.6 | > 100 | 30.7 | > 100 | > 100 | 52.4 |  |
| CCCCOc1ccc(S(=O)(=O)/N=C(\NN)Nc2ccc(Cl)cc2)cc1 |  | 47.6 | > 100 | 82.2 | > 100 | 35.6 | 67.4 | 36.2 | > 100 | > 100 | 42.9 | > 100 | 46.8 | 31.9 | 68.7 | > 100 | 31.1 |  | > 100 |
| CC(C)c1cccc(C(C)C)c1NC1=CC(=O)C(=O)c2ccccc21 | > 100 | > 100 | > 100 | > 100 | > 100 | > 100 | > 100 | > 100 | > 100 | > 100 | > 100 | > 100 | > 100 | > 100 | > 100 |  |  |  |  |
| O=S(Cc1cc2c(cc1Br)OCO2)c1ccccc1 (stereo not given) | 56.3 | 76.3 | > 100 | 29.7 | 59.4 | 30.7 | > 100 | > 100 | > 100 | > 100 | > 100 | > 100 | > 100 | > 100 | > 100 | > 100 |  |  |  |
| O=C(N/C(=C/c1ccc(Cl)cc1)c1nc2ccccc2c(=O)n1Nc1ccc([N+](=O)[O-])cc1[N+](=O)[O-])c1ccccc1 | > 100 | > 100 | > 100 | > 100 |  | > 100 | > 100 |  | > 100 |  | > 100 | > 100 | > 100 | > 100 | > 100 |  |  | > 100 | > 100 |
| COc1cccc(/C=C2\C(=O)N(C(=O)Cc3ccccc3)N=C2C)c1 | > 100 | > 100 | > 100 | > 100 | > 100 | > 100 |  |  | > 100 |  | > 100 | > 100 | > 100 |  | > 100 | > 100 |  |  |  |
| CC1=NN(c2ccccc2)C(=O)C1=C1SCCCS1 | 37.5 | 39 | > 100 | 26.6 | 46.1 | 55.8 | > 100 | 60.7 | 84.7 | 90.7 | 31.7 | 36.1 | 70.7 | > 100 | 94.1 | > 100 |  |  |  |
| O=C1C=C(Nc2ccccc2C(=O)CC(=O)C(=O)Nc2ccc(Cl)c(Cl)c2)c2ccccc2C1=O | 54.5 | > 100 |  |  | > 100 |  | > 100 | > 100 | > 100 | > 100 |  | > 100 | > 100 | > 100 | 47.6 | > 100 |  |  |  |
| CO[C@@]12CC(=O)/C(=C(O)\C=C\c3ccccc3)C(=O)[C@]1(OC)Cc1ccccc1O2 | 83.8 | 84.6 | 73.4 | > 100 |  | > 100 | > 100 | 36.5 | > 100 | 90.7 | > 100 | 96 | 55.9 | 88.1 | > 100 | 74.2 |  |  |  |
| C1=c2ccccc2=C2C(=C(c3ccccc3)C(c3ccccc3)=NN2c2ccccc2)S1 | > 100 | > 100 | > 100 | > 100 | > 100 | > 100 | > 100 | > 100 | > 100 | > 100 | > 100 | > 100 |  | > 100 | > 100 | > 100 |  |  |  |

— PubChem BioAssay (NCI)
